One compound from US8895746B2 (University of Central Florida Research Foundation, Inc., priority 2009, dated 2014) can be followed below.

Each structure is given as a SMILES string. Where only a bound is given, the exact number is not on record here.

The subject of data set [1] is NIH3T3/v-Src, MDA-MB-231 and Panc-1 cells. The data set can be described thus: Viable cell numbers and growth (CyQuant, trypan blue exclusion), cells with aberrant Stat3. Type of data set: cell-based, mouse, human.
The next data set concerns the target T1, Stat3:EGFR immunecomplex (Homo sapiens, UniProt P40763).
T1 construct: precipitated from whole-cell lysates of untreated Panc-1 cells; endogenous in cells; host or cells: Panc-1 cells (immunoprecipitates from whole-cell lysates)
Briefly: Direct treatment of EGFR and Stat3 immunecomplexes from Panc-1 lysates, Western blotting. The conditions noted are these: 0-100 M, 3 h. Type of data set: biochemical. The protocol: (§1) Immunoprecipitation from whole-cell lysates and SDS/PAGE and Western blotting analysis were performed as previously described (33,38).
The EGFR levels in the immunecomplexes remained unchanged (FIG. 4B(ii), upper band). […] The Stat3 levels in the immunecomplexes remained unchanged (FIG. 4B(ii), i.p. Stat3, blot Stat3).
On the technique in general: A western blot detects proteins with antibodies after separation by electrophoresis.

Data set [2] deals with NIH3T3/v-Src, Panc-1 and MDA-MB-231 cells. Briefly: Colony survival assay. The note with it: treated once. Type of data set: cell-based, mouse, human. The protocol:
(§2) This was performed as previously reported (39). […] Colonies were stained with crystal violet for 4 h and counted under phase-contrast microscope.
(§3) Cultured single-cells were untreated or treated once with S3I-201.1066 and allowed to grow until large colonies were visible, which were stained and enumerated.

Data set [3] deals with Stat3-dependent luciferase reporter (pLucTKS3). The data set can be described thus: Stat3-dependent luciferase reporter in NIH3T3/v-Src. The format is cell-based, mouse. The note with it: NIH3T3/v-Src stably expressing pLucTKS3; 36-h treatment. The source says: Positions of STATs:DNA complexes or proteins in gel are labeled; control lanes (0) represent nuclear extracts treated with 0.05% DMSO, or nuclear extracts or whole-cell lysates prepared from 0.05% DMSO-treated cells. Data are representative of 3-4 independent determinations. **—<0.01;
Normal mouse fibroblasts (NIH3T3) and counterparts transformed by v-Src (NIH3T3/v-Src), v-Ras (NIH3T3/v-Ras) or overexpressing the human epidermal growth factor (EGF) receptor (NIH3T3/hEGFR), and the human breast cancer (MDA-MB-231) and pancreatic cancer (Panc-1) cells have all been previously reported (15,27-29). The normal human pancreatic duct epithelial cells (HPDEC) was a kind gift from Dr. Tsao, (OCI, UHN-PMH, Toronto) (30), Stat3 knockout mouse embryonic fibroblasts was generously provided by Dr. Poli (31), and the mouse thymic epithelial stromal cells (TE-71) was a generous gift from Dr. Farr (32). The Stat3dependent reporter, pLucTKS3 and the v-Src transformed mouse fibroblasts that stably express pLucTKS3 have been previously reported (15, 33). Cells were grown in Dulbecco's modified Eagle's medium (DMEM) containing 10% heat-inactivated fetal bovine serum, or in the case of HPDEC, they were grown in Keratinocyte-SFM media supplemented with 0.2 ng EGF, 30 μg/ml bovine pituitary extract and containing antimycol.
(In a reporter assay the amount or activity of a reporter protein is the signal.)

Data set [4] has as its system Src (pY416Src), Jak1 (pJak), Shc (pShc), and Erk1/2 (pErk1/2). The data set can be described thus: Western blot of phosphorylation of Src, Jak1, Shc, Erk1/2 in NIH3T3/v-Src and Panc-1 cells. The format is cell-based, mouse, human. The protocol: as §1
We infer that […].

Data set [5] concerns mouse thymus epithelial stromal cells (TE71). The data set can be described thus: CyQuant cell viability. The format is cell-based. The source says:
(§4) Aberrant Stat3 promotes malignant cell proliferation, survival and malignant transformation (10, 20, 42). Given that S3I201.1066 disrupts Stat3 activation, we asked the question whether this agent is able to selectively decrease the viability and growth of malignant cells that harbor aberrant Stat3 activity.

The subject of data set [6] is normal human pancreatic duct epithelial cells (HPDEC). The data set can be described thus: CyQuant cell viability. Type of data set: cell-based.
From the text: as §4

The next data set concerns pTyr705Stat3. Briefly: Western blot of pTyr705Stat3 in NIH3T3/v-Src and Panc-1 cells. Type of data set: cell-based, mouse, human. The note with it: 24 h. The protocol: as §1
Data set [7] concerns human breast cancer (MDA-MB-231) xenografts. The conditions noted are these: mouse, in vivo. The source says:
Wounds were made using pipette tips in monolayer cultures of cells in six-well plates. […] The migration of cells was visualized at a 10× magnification using an Axiovert 200 Inverted Fluorescence Microscope (Zeiss, Göttingen Germany), with pictures taken using a mounted Canon Powershot A640 digital camera (Canon USA, Lake Success, N.Y.). Cells that migrated into the denuded area were quantified. Mice and in vivo tumor studies-Six-week-old female athymic nude mice were purchased from Harlan and maintained in the institutional animal facilities approved by the American Association for Accreditation of Laboratory Animal Care. Athymic nude mice were injected subcutaneously in the left flank area with 5×10^6 human breast cancer MDA-MB-231 cells in 100 μL of PBS. After 5 to 10 days, tumors of a diameter of 3 mm were established. […] Tumor volume was calculated according to the formula V=0.52×a^2×b, where a, smallest superficial diameter, b, largest superficial diameter.

The subject of data set [8] is c-Myc, Bcl-xL, VEGF, and MMP-9 proteins. The data set can be described thus: Immunoblotting of Stat3-regulated gene products in MDA-MB-231 and Panc-1 cells. The format is cell-based, human. The note with it: 48 h-treatment. The protocol:
as §1
Known Stat3 downstream target genes are key in the dysregulated biological processes promoted by aberrant Stat3 (9, 20, 42).

The next data set deals with T2, Stat3 SH2 domain (Mus musculus, UniProt P42227).
T2 construct: Purified histidine-tagged Stat3 SH2 domain (His-SH2) was added at increasing concentrations (1-500 ng); SUMO (vector pET SUMO); made in house; host or cells: E. coli BL21(DE3)
Briefly: EMSA of Stat3 DNA-binding with added purified His-tagged Stat3 SH2 domain. The format is biochemical, murine. The note with it: 1-500 ng His-SH2; full recovery at 125-500 ng. The source says: Coding regions for the murine Stat3 protein and Stat3 SH2 domain were amplified by PCR and cloned into vectors pET-44 Ek/LIC (Novagen) and pET SUMO (Invitrogen), respectively.

Data set [9] concerns NIH3T3/v-Src, MDA-MB-231 and Panc-1 cells. The data set can be described thus: Soft-agar colony formation assay. The format is cell-based, mouse, human. Here is the method:
Colony formation assays were carried out in 6-well dishes, as described previously (16,37). Briefly, each well contained 1.5 ml of 1% agarose in Dulbeco's modified Eagle's medium as the bottom layer and 1.5 ml of 0.5% agarose in Dulbeco's modified Eagle's medium containing 4000 or 6000 NIH3T3/v-Src or NIH3T3/v-Ras fibroblasts, respectively, as the top layer. Treatment with S3I201.1066 was initiated 1 day after seeding cells by adding 80 μl of medium with or without S3I20.1.1066, and repeating every 3 days, until large colonies were evident. Colonies were quantified by staining with 20 μl of 1 mg/ml crystal violet, incubating at 37° C. overnight, and counting the next day under phase contrast microscope.

A further data set concerns NIH3T3/v-Ras. The data set can be described thus: Colony survival assay. Type of data set: cell-based, mouse. The protocol: as §2, §3
Where [10] appears, read: increasing concentrations, 24-144 h.

T1 sequence (P40763 2-770 limits assumed, one chain of several): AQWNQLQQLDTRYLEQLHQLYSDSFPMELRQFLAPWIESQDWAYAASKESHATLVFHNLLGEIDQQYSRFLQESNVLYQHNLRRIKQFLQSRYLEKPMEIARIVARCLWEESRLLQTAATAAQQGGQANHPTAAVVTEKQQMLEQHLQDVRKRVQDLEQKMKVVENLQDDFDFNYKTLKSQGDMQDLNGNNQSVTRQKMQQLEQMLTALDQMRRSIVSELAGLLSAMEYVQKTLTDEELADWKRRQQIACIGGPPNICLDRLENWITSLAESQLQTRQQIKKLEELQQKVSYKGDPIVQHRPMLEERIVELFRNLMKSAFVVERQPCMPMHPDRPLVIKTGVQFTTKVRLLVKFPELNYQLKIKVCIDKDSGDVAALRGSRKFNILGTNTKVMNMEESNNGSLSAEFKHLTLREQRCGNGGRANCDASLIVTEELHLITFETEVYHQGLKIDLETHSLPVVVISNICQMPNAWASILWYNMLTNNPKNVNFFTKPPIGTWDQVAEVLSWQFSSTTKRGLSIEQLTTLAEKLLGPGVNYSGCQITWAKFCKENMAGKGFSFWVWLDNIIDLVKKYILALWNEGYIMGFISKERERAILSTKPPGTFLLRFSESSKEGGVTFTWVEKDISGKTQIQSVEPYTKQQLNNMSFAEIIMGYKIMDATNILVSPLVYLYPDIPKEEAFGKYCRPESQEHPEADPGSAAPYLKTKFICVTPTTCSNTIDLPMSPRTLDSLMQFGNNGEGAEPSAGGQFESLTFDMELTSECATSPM
T2 sequence (P42227 580-670 limits assumed): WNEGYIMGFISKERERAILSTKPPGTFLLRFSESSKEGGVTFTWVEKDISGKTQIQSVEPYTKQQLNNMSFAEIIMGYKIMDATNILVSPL

`Cc1ccc(S(=O)(=O)N(C)CC(=O)N(Cc2ccc(C3CCCCC3)cc2)c2ccc(C(=O)O)c(O)c2)cc1` [S3I-201.1066]: in [1], the “concentrations at which antitumor cell effects occurred” value lay in the range of 30 to 50 µM. In data set [1] (setting [10]), the “growth (trypan blue exclusion)” value is on record as “growth inhibited” and the viable cell numbers entry is recorded as “significantly reduced viable cell numbers”. Also, at Stat3:EGFR immunecomplex, the “EGFR levels in directly treated Stat3 immunecomplex” value is “strongly reduced EGFR levels”, the “level of Stat3 present in directly treated EGFR immunecomplex” value is recorded as “dramatically diminished” and the “levels of Shc or Grb 2 in directly treated EGFR immunecomplex” value was “no visible changes”. Further, the “number of colonies, colony survival” value in data set [2] is “dose-dependent suppression”. Further, the “induction of the Stat3-dependent reporter” value in data set [3] is “significantly (p<0.01) repressed”. The “pJak1 level in Panc-1 cells” value in data set [4] (100 μM, Panc-1) is “disappearance of pJak1 level”. In [4] (30-50 μM), the “inhibitory effect on phosphorylation of Src, Jak1, Erk1/2MAPK and Shc” value is recorded as “minimum inhibitory effect”. In addition, the “phosphorylation of Src, Jak1, Shc and Erk1/2” value in data set [4] (24 h, NIH3T3/v-Src and Panc-1) is reported as “no significant effects”. Moreover, the “derived IC60 values, viability” value in data set [5] is greater than 200 μMm. Also, the “derived IC60 values, viability” value in data set [6] is on record as greater than 200 μMm. The pTyr705Stat3 levels result in the data set with pTyr705Stat3 is listed as “concentration-dependent reduction”. The “toxicity in tumor-bearing mice” value in data set [7] was “no obvious sign of toxicity”. Besides, the “expression of c-Myc, Bcl-xL, VEGF, and MMP-9 proteins” value in data set [8] was “significantly suppressed”. Besides, the “inhibition of Stat3 DNA-binding activity in presence of increasing purified His-SH2 domain” value at Stat3 SH2 domain is “progressively eliminated”. In data set [9], the “growth in soft-agar suspension” value is listed as “significantly inhibited”. Moreover, the “colony numbers, colony survival” value in the data set with NIH3T3/v-Ras is “minimal effect”.
